Source: patent US5073571A, “Method of inhibiting virus” (priority 1989, dated 1991)

System: HIV-1
Assay: HIV-1 replication in H9 cells, reverse transcriptase activity of culture supernatants (acute infection)
Type: cell-based, HIV-1 strain HXB2gptX (in human H9 cells)
Details: for relative efficacy on HIV-1 production: 1-100 μM, ranking among the four analogs
Procedure: Media was changed every other day. The effect of these compounds on virus production was determined by measuring the reverse transcriptase (RT) activity in samples of the cell culture supernatants. […] Negative controls consisted of no additions or 0.1ethanol. The results of duplicate assays were averaged. Panel B -Concentration-dependent effects of 13-oxamyristic acid on HIV-1 replication as measured by RT activity (percent of untreated control) and the presence of p24 antigen (ng/ml determined by ELISA). Error bars indicate the S.E.M. of assays done in triplicate. Panel C - The effect of 13-oxamyristic acid on syncytia formation using an arbitrary scale described under Materials and Methods, Example 16, below. Panel D - Toxicity of 13-oxamyristic acid determined by viable cell count (trypan blue exclusion), as well as by [^3 H]thymidine and [^3 H]leucine labeling (see under Materials and Methods, Example 16, below). The incorporation of these radiolabeled compounds was determined in the total cell population contained in a well after 10 days of treatment with the analog. Duplicate assays were performed and the results averaged.
Assay for HIV-1 Replication. The human T-lymphoid cell line, H9, was provided by R. D. Gallo (NIH) and maintained in RPMI-1640 medium supplemented with 10% fetal bovine serum, 100 IU/mL penicillin, 100 μg/mL streptomycin an 2 mM L-glutamine. HIV-1 strain HXB2gptX [Fisher et al., Science 233, 655-659 (1986)] was obtained from cultures of chronically infected H9 cells [Popovic et al., Science 224, 497-500 (1984)]< filtered through 0.2 μm Millipore filters and stored at -90° C. The titer of the virus stock was determined by serial dilution using syncytia formation and reverse transcriptase activity (see below) as a measure of infectivity in H9 cells.
Cell-free HIV-1, at a multiplicity of infection (m.o.i.) equal to 0.01-0.001, was added to 10^7 H9 cells which had been pretreated with 2 μg/ml Polybrene® (hexadimethrene bromide, Sigma). Following a 30 min incubation at 37° C. to absorb the virus, 4 × 10^5 of virus treated cells in 1 mL of fresh medium (plus 10% fetal calf serum, pencillin and streptomycin) were added to each well of a 24 well tissue culture plate (Falcon), and mixed with an equal volume of serum-free RPMI-1640 medium containing analog. Medium containing 5% serum, antibiotics ± analog was replaced every other day. Each of the heteroatom substituted analogs was prepared as a 100 mM stock solution in 100% ethanol and stored at -90° C. prior to dilution in the serum-free RPMI-1640 medium. The maximum final ethanol concentration reached after dilution of the different analogs in media was 0.1%. Therefore, uninfected and infected H9 cells, treated with or without 0.1% ethanol, were used as controls for each test. Ethanol alone had no demonstrable effects.
Except for the preliminary screening of the various (coded) analogs which was done twice, all other assays were performed at least three times. Samples were tested in duplicate each time the assay was repeated.
Virus Assays. Virus was quantitated using supernatant solutions of cells harvested on day 8 (m.o.i.=0.01) or day 10 (m.o.i.=0.001) of treatment. Virions were concentrated 10 fold by precipitation of culture supernatants with a solution of polyethylene glycol (30% in 150 mM NaCl, 0.1 mM phenylmethylsulfonylfluoride). The precipitates were solubilized and virus-associated reverse transcriptase (RT) activity measured by [^32 P]TTP incorporation using a poly(rA)-oligo(dT) template [Poiesz et al., Proc. Natl. Acad. Sci. USA 77, 7415-7419 (1980)]. Cell supernatants were also tested for virus-specific antigen using a p24 ELISA from Dupont (Wilmington, DE). This assay can detect as little as 0.03 ng of antigen/mL (antigen=p24, the major structural nucleocapsid protein of HIV-1, as well as its precursor, Pr55^gag).
HIV-1 Replication in H9 Cells is Inhibited by Treatment with Heteroatom-Containing Analogs of Myristate. […]

[1] = Human immunodeficiency virus 1, H9, 240 h, read-out: reverse transcriptase (RT) activity

COCCCCCCCCCCCC(=O)O [13-oxamyristate, 12-(Methoxy)dodecanoic acid]
dose dependence of reduction in reverse transcriptase activity (0.1 μM to 100 μM, H9 cells): dose dependent reduction in reverse transcriptase activity
effect on reverse transcriptase activity (1-10 μM, 10 day incubation, HIV-1 infected H9 cells): More pronounced effects
relative efficacy on HIV-1 production (H9 cells): greatest effects
relative efficacy on HIV-1 production (H9 cells, listed as 13-oxamyristic acid): most effective
reduction in virus replication (reverse transcriptase) (20-40 μM range, H9 cells): greater than 90%
activity at 10 µM [1]: 20%
activity at 100 µM [1]: < 10%
